ChEMBL document CHEMBL1151498, “Synthesis and biological evaluation of 23-oxa-, 23-thia- and 23-oxa-24-oxo-1,25-dihydroxyvitamin D3” (1993)

Legend:
HL-60 [1] = assay: Compound was tested to induce differentiation of human promyeloid leukemia cells (HL-60); type: functional
[2] = target: T1, Vitamin D3 receptor (Homo sapiens) (UniProt P11473); assay: Compound was tested to assess the relative affinity for the intestinal mucosal vitaminD receptor
T1 sequence (whole entry): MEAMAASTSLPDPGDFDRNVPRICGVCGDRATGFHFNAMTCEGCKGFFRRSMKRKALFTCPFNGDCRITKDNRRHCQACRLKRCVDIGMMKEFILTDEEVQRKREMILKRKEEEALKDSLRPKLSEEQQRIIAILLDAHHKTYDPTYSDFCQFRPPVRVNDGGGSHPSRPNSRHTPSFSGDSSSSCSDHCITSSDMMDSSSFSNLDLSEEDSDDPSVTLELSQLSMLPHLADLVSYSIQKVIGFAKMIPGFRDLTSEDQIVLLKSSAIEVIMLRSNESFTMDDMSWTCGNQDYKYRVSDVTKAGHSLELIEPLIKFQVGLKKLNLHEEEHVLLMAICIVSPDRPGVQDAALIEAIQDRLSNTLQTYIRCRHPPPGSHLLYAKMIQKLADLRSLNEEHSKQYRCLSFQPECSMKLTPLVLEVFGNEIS

HL-60 [3] = assay: Ability to induce differentiation of human promyeloid leukemia cells (HL-60); type: functional

| Relative affinity [2] | Compound | Relative activity (HL-60 [1]) | Relative activity (HL-60 [3]) |
| --- | --- | --- | --- |
| 13 | C=C1/C(=C\C=C2/CCC[C@]3(C)[C@@H]([C@H](C)CSCC(C)(C)O)CC[C@@H]23)C[C@@H](O)C[C@@H]1O | 29 |  |
| 26 | C=C1/C(=C\C=C2/CCC[C@]3(C)[C@@H]([C@H](C)COC(=O)C(C)(C)O)CC[C@@H]23)C[C@@H](O)C[C@@H]1O | 6 |  |
| 2 | C=C1/C(=C\C=C2/CCC[C@]3(C)[C@@H]([C@H](C)COCC(C)(C)O)CC[C@@H]23)C[C@@H](O)C[C@@H]1O |  | 9 |
